Active and inactive are the calls of the source. Cut-off read from the data, not from the text of the source, for most assays here: actives have a measured EC50 and inactives only a lower limit.
Columns and labels:
[1] = cytotoxicity toward NIH3T3 fibroblasts, dose response, counter-screen, cell-based, ATP luminescence, mouse fibroblasts (AID 2010); assay type: functional;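 note: cells exposed to compound for about 90 hours before reading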
[2] = inhibitors of intracellular T. cruzi replication, confirmation, NIH3T3 host cells, beta-gal luminescence (AID 2044); assay type: functional, cell-based;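 note: intracellular parasites grown in NIH/3T3 mouse fibroblasts as host cells; luminescent beta-galactosidase reporter signal from transgenic T. cruzi replicating inside host cells; inhibitors lower the luminescence signal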
[3] = biological target: T1, Corticotropin-releasing factor receptor 2/Corticotropin-releasing factor-binding protein (Homo sapiens, UniProt P24387+Q13324); test: activators of CRF receptor 2 with binding protein – uHTS hits, confirmation (AID 602473); assay type: functional; conditions: read-out: EC50_Mean
T1 sequence (Q13324 whole entry): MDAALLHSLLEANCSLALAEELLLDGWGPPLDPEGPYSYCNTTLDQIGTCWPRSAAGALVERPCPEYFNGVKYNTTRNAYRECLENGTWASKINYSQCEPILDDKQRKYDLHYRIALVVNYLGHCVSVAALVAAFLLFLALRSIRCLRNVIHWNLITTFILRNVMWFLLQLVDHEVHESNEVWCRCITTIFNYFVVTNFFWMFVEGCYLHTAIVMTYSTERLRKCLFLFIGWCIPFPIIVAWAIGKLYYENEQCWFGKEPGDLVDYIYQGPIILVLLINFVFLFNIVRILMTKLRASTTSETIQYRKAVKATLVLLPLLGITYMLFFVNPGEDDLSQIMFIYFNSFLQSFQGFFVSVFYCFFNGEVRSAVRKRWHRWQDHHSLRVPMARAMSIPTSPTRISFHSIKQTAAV
T1 sequence (P24387 whole entry): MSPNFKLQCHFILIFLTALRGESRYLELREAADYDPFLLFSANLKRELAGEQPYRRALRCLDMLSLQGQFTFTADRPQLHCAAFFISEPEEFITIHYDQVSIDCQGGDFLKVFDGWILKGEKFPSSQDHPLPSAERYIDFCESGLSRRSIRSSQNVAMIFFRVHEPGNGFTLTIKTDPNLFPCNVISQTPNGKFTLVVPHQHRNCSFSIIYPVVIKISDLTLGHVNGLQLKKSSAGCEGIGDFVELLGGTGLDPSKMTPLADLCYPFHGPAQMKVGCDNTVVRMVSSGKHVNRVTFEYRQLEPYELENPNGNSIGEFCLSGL

Cytochrome P450 2D6 = Cytochrome P450 2D6 (Homo sapiens, UniProt P10635);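 note: CYP2D6 member of a cytochrome P450 panel assay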
[4] = biological target: T2, Heat shock factor protein 1 (Mus musculus, UniProt P38532); test: HSF1 potentiators in luciferase reporter cells, confirmation, cell-based, NIH3T3, luminescence, dose retest (AID 435004); assay type: functional;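 note: stress induced by proteasome inhibitor MG132 added 30 min after compound; luciferase reporter driven by HSF1 response element in NIH3T3 cells; actives raise luminescence as potentiators of the MG132 stress response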
T2 sequence (P38532 whole entry): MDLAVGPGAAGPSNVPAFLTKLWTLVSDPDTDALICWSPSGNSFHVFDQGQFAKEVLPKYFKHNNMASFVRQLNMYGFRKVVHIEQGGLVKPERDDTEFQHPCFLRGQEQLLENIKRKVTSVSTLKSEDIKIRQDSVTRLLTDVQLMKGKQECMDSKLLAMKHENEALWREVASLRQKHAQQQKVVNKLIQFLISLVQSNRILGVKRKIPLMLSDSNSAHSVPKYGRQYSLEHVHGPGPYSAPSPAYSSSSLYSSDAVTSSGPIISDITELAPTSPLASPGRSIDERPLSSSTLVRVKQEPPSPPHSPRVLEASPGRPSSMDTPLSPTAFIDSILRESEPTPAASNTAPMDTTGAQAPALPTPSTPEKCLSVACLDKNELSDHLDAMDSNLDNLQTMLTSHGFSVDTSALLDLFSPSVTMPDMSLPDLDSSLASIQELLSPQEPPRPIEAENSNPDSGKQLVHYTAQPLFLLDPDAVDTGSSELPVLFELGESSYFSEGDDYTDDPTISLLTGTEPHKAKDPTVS

[5] = biological target: T2, Heat shock factor protein 1; test: inhibition of MG132-induced HSE-luciferase signal, confirmation, cell-based, NIH3T3, luminescence, dose retest (AID 2382); assay type: functional;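 note: NIH3T3 fibroblasts with HSF1-driven luciferase reporter stressed by proteasome inhibitor MG132; luminescence from HSF1-driven luciferase expression after 8 hours of MG132 stress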
Streptococcus = test: Group A Streptococcus viability loss, dose response, counter-screen for streptokinase expression inhibitor project, luminescence, BacTiterGlo (AID 1915); assay type: functional, organism-based;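 note: potency for reduction of bacterial viability or growth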
[6] = system: Streptococcus sp. 'group A'; test: growth inhibition of control SK(-) GAS strain, dose response, counter-screen for streptokinase expression inhibitor project, luminescence, kanamycin, BacTiterGlo, confirmation (AID 1900); assay type: functional, organism-based

Cytochrome P450 2D6, sequence (P10635 whole entry): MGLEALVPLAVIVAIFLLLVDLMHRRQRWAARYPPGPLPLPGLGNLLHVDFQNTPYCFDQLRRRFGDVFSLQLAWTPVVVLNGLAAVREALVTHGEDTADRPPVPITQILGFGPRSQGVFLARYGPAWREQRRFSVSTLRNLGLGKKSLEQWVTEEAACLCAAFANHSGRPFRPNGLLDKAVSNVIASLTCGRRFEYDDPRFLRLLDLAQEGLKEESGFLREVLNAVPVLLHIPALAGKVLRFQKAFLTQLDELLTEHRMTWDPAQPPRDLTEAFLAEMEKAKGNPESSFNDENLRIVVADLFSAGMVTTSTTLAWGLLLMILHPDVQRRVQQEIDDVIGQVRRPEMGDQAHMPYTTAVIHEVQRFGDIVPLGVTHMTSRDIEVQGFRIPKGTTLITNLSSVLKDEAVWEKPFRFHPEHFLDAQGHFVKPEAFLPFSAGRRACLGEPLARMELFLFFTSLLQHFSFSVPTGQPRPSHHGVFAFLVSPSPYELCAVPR

COc1ccc(-c2nc(C#N)c(NCc3cccnc3)o2)cc1OC
EC50 [1]: > 60 µM (not active) | EC50 [2]: 1.8 µM (active)

CCCCOc1ccc(CSC2=NCCN2)cc1[N+](=O)[O-]
EC50 [1]: > 30 µM (not active) | EC50 [2]: 0.46 µM (active)

CCOc1ccc(NS(=O)(=O)c2ccc(C(=O)NCC(c3ccco3)N3CCCC3)cc2)cc1 (configuration not stated)
EC50 [3]: 6.17 µM (active)

CCOC(=O)NNc1nncc2ccccc12 [TODRALAZINE]
AC50 (Cytochrome P450 2D6): 12.6 µM (inconclusive)

Cc1ccc(C(=O)NCCc2nc3ccccc3[nH]2)cc1[N+](=O)[O-]
EC50 [1]: > 60 µM (inconclusive) | EC50 [2]: 1.03 µM (active)

COc1ccc(C(=O)C2=C(O)C(=O)N(CCN(C)C)C2c2cccnc2)cc1C (configuration not stated)
EC50 [3]: > 53 µM (inactive)

O=C(NCCc1nc2ccccc2[nH]1)/C(=C/c1ccc(F)cc1)NC(=O)c1ccco1
EC50 [4]: > 260 µM (inactive)

COC(=O)CNC(c1ccccc1)c1cc(Br)ccc1NC(=O)CCN1CCOCC1 (configuration not stated)
EC50 [1]: > 60 µM (not active) | EC50 [2]: 6.7 µM (active)

O=C(COC(=O)COc1cccc(Br)c1)Nc1c(Cl)cccc1Cl
EC50 [4]: > 260 µM (inactive)

Cc1ccnc(NC(=O)c2cc3cc(F)ccc3s2)c1
EC50 [4]: > 260 µM (inactive)

O=[N+]([O-])c1ccc(Nc2ccc(F)cc2)cc1
EC50 [5]: > 195 µM (not active)

c1cn(-c2ncnc3ccc(-c4ccoc4)cc23)cn1
AC50 (Cytochrome P450 2D6): 39.8 µM (inconclusive)

Cc1cc(Cn2ccnc2)c(C)cc1Cn1ccnc1
EC50 [1]: > 60 µM (not active) | EC50 [2]: 2.45 µM (active)

CCC12CN3CC(CC)(CN(C1)C3c1ccc([N+](=O)[O-])o1)C2=O (configuration not stated)
EC50 [1]: > 30 µM (not active) | EC50 [2]: 0.85 µM (active)

COc1cc(OC)cc(C(=O)Nc2nc(-c3ccccc3)c(-c3ccccc3)o2)c1
EC50 (Streptococcus): 1.34 µM (active) | EC50 [6]: 0.617 µM (active)

CCOc1ccc(/C=C2\SC(=O)N(CCNC(=O)C3COc4ccccc4O3)C2=O)cc1OC (configuration not stated)
EC50 [5]: > 195 µM (not active)

Cn1c(N)c(C(=O)Nc2ccc(-c3ccccc3)cc2)sc1=S
EC50 [5]: > 195 µM (not active)

C/C(=N\NC(=O)C(N)=O)c1ccc(O)cc1O
EC50 [5]: > 195 µM (not active)

COc1ccccc1C(=O)C1CCCN(Cc2c[nH]nc2C2CCCCC2)C1 (configuration not stated)
EC50 [1]: > 60 µM (not active) | EC50 [2]: 0.604 µM (active)

CCN(CC)c1ccc(/C=C2/C(=O)N(c3ccc([N+](=O)[O-])cc3)N=C2N2CCOCC2)cc1
EC50 [4]: > 260 µM (inactive)

CCOC(=O)N1CCN(c2nc(-c3ccco3)cc(C(F)(F)F)n2)CC1
AC50 (Cytochrome P450 2D6): 14.1 µM (inconclusive)

CN(C)S(=O)(=O)N1CCN(C(=O)N2CCCCC2)CC1
EC50 [5]: > 195 µM (not active)

COCc1cc(CN2CCN(CCc3ccccc3)C(CCO)C2)ccc1OC (configuration not stated)
EC50 [4]: > 260 µM (inactive)

COCCN(Cc1c[nH]nc1-c1ccc2cc(OC)ccc2c1)C(C)C
EC50 [1]: > 60 µM (not active) | EC50 [2]: 1.56 µM (active)

CCN=C(S)NNC(=O)c1cccn(Cc2ccc(Cl)cc2Cl)c1=O
EC50 [3]: 7.26 µM (active)

COc1ccc(/C=C(\C#N)C(=O)Nc2cccc(C)n2)cc1
EC50 [4]: 165 µM (active)

Cc1cccc(C(=O)NNC(=O)CCn2nnc3ccccc32)c1
EC50 [4]: > 260 µM (inactive)

CCn1c2ccccc2c2cc(NS(=O)(=O)c3ccccc3C)ccc21
AC50 (Cytochrome P450 2D6): 8.91 µM (inconclusive)

Cc1c(Cl)cccc1NC(=O)Nc1cnccn1
EC50 [5]: > 195 µM (not active)

O=C(NCc1ccccn1)c1cc(-c2ccc(-c3ccccc3)cc2)nc2ccccc12
EC50 [4]: 0.461 µM (active)

CCOc1cc(CNCC2CCCN2CC)cc(Cl)c1OC (configuration not stated)
EC50 [5]: 63.1 µM (active)

CN(C)C(CNC(=O)CCC(=O)c1ccc(Br)cc1)c1ccccc1 (configuration not stated)
EC50 [4]: > 260 µM (inactive)

COc1ccc(CNc2ncnc3ccc(-c4cccc(NS(C)(=O)=O)c4)cc23)c(OC)c1
AC50 (Cytochrome P450 2D6): 10 µM (inconclusive)

O=C(c1ccc(-n2cncn2)c([N+](=O)[O-])c1)N1CCN(S(=O)(=O)c2ccccc2F)CC1
EC50 [5]: > 195 µM (not active)

Cc1nc2c(cc1C(=O)N/N=C/c1ccc(O)c(O)c1)c(=O)n(C)c(=O)n2C
EC50 [5]: > 195 µM (not active)

O=C1CC(c2ccc(Cl)cc2)n2nc(NS(=O)(=O)c3ccc(F)cc3)nc2N1 (configuration not stated)
EC50 [4]: > 260 µM (inactive)

CC(/C=N\NC(=O)c1cc(C)oc1C)=C\c1ccccc1
EC50 [5]: > 195 µM (not active)

CCCC(=O)NCCc1c2n(c3ccc(OC)cc13)Cc1ccccc1-2
AC50 (Cytochrome P450 2D6): 39.8 µM (inconclusive)

C=CCC(C(=O)OC)(C(=O)OC)c1ccc([N+](=O)[O-])cc1[N+](=O)[O-]
EC50 [1]: > 60 µM (not active) | EC50 [2]: 2.42 µM (active)

C/C(CC(=O)Nc1cccc2c1CCCC2)=N\NC(=O)COc1ccccc1
EC50 [4]: > 260 µM (inactive)

O=C(NCC1CCCN(Cc2ccc3nonc3c2)C1)c1cccc(C(F)(F)F)c1 (configuration not stated)
EC50 [1]: > 60 µM (not active) | EC50 [2]: 0.771 µM (active)

CCc1cccc(NC(=O)C2CCCN(S(=O)(=O)c3cccs3)C2)c1 (configuration not stated)
EC50 [5]: > 195 µM (not active)

Cc1ccc(C(=O)Cn2nnc(-c3ccccc3-n3cnnn3)n2)cc1
EC50 [4]: > 260 µM (inactive)

Cc1ccc(-n2nc3c(=O)n(CCCC(=O)N4CCC(C(N)=O)CC4)nc(C)c3c2C)cc1
EC50 [5]: > 195 µM (not active)

CCn1c(N)nc2ccccc21
AC50 (Cytochrome P450 2D6): 17.8 µM (inconclusive)

O=S(=O)(NC1CCCCC1N1CCN(c2ccc(F)cc2)CC1)c1ccc(Cl)cc1 (configuration not stated)
EC50 [3]: 3.94 µM (active)

Cc1ccc(OCC(=O)c2cc(C)n(-c3ccccc3)c2C)c([N+](=O)[O-])n1
EC50 [5]: 0.623 µM (active)

O=C(Nc1cccc(S(=O)(=O)N2CCOCC2)c1)c1cn(-c2ccccc2)nc1-c1ccc(F)cc1
EC50 [1]: > 60 µM (inconclusive) | EC50 [2]: 2.49 µM (active)

CCN(C(=O)c1cc2c(O)nc3ccc(C)cc3c2s1)c1ccccc1F
EC50 [4]: > 260 µM (inactive)

O=C(N/N=C/c1ccc(-c2ccc(Br)cc2)o1)c1ccc2c(c1)OCO2
EC50 [1]: > 60 µM (inconclusive) | EC50 [2]: 1.47 µM (active)

COc1ccc(OC)c(Nc2nc3ccc(C)cc3n3cnnc23)c1
EC50 [4]: > 260 µM (inactive)

CCOC(=O)c1c(NC(C)=O)sc2c(OCCN(CC)CC)c(Br)ccc12
EC50 [1]: > 60 µM (not active) | EC50 [2]: 1.58 µM (active)

O=[N+]([O-])c1cc(Br)c(OCc2nnc(-c3ccccc3)o2)c(Br)c1
EC50 [1]: > 60 µM (not active) | EC50 [2]: 1.75 µM (active)

Cc1ccc(C(NC(=O)/C=C\c2ccc3c(c2)OCO3)C(=O)Nc2ccc3c(c2)OCO3)cc1 (configuration not stated)
EC50 [4]: > 260 µM (inactive)

CS/C(=N\C#N)N1CCN(c2ccc(Cl)cc2)CC1
EC50 [4]: 129 µM (active)

Cc1ccc(-n2nc(C)c3cc(C(=O)O)sc32)cc1
EC50 [5]: > 195 µM (not active)

O=C(Cc1ccccc1)Oc1ccccc1N1C(=O)CCC1=O
EC50 [5]: > 195 µM (not active)

— ChEMBL document CHEMBL1201862, “PubChem BioAssay data set” (2004)
